Holding throughout (format): cell-based
In one assay the test system is E. coli. As to the kind of experiment: Anti-microbial activity, inhibition zone, E. coli. On Inhibition Zone(mm ± SD) E. coli: test concentration or dose not given here. As for the experimental part: (§1) All synthesized compounds were tested for their antimicrobial activities against five types of microorganisms, including gram-negative and positive bacteria and fungi. The gram-negative bacteria include E. coli and P. aeruginosa, while B. subtilis and S. aureus represented the gram-positive bacteria. C. albicans was the fungus used in the screening. […] In addition, the antibacterial activity of the Schiff bases seems to be insensitive to the position and the nature of the substituents. […] For the gram-positive bacteria, the antibacterial activity was more significant in Schiff base derivatives when compared to azo derivatives.

The next assay concerns P. aeruginosa. As to the kind of experiment: Anti-microbial activity, inhibition zone, P. aeruginosa. On Inhibition Zone(mm ± SD) P. aeruginosa: test concentration or dose not given here. As for the experimental part: as §1
A further assay deals with B. subtilis. Description: Anti-microbial activity, inhibition zone, B. subtilis. On Inhibition Zone(mm ± SD) Bacillus: test concentration or dose not given here. As to conditions: for Inhibition Zone(mm ± SD) Bacillus: Bacillus (B. subtilis). As for the experimental part: as §1
The next assay deals with S. aureus. As to the kind of experiment: Anti-microbial activity, inhibition zone, S. aureus. On Inhibition Zone(mm ± SD) S. aureus: test concentration or dose not given here. As for the experimental part: as §1
Another assay relates to C. albicans. As to the kind of experiment: Anti-microbial (antifungal) activity, inhibition zone, C. albicans. Further: test concentration or dose not given here. As for the experimental part: as §1

Structures are written as SMILES.

Turning to `COc1ccccc1C=Nc1nccs1` [Compound 15, N-(2-methoxybenzylidene)thiazol-2-amine], in the assay on E. coli, the “Inhibition Zone(mm ± SD) E. coli” value is 12.6 ± 0.5 mm. Besides, the “Inhibition Zone(mm ± SD) P. aeruginosa” value in the assay with P. aeruginosa is recorded as “Nil”. The “Inhibition Zone(mm ± SD) Bacillus” value in the assay with B. subtilis is listed as “Nil”. The “Inhibition Zone(mm ± SD) S. aureus” value with S. aureus is “Nil”. Further, the “Inhibition Zone(mm ± SD) Candida” value with C. albicans was “Nil”.

Regarding `O=[N+]([O-])c1ccccc1C=Nc1nccs1` [Compound 11, N-(2-nitrobenzylidene)thiazol-2-amine], in the assay with E. coli, the “Inhibition Zone(mm ± SD) E. coli” value is reported as 12.3 ± 0.9 mm. Besides, in the assay with P. aeruginosa, the “growth inhibition against P. aeruginosa (in words)” value is “showed growth inhibition” and the “Inhibition Zone(mm ± SD) P. aeruginosa” value is 11.8 ± 0.6 mm. In addition, in the assay on B. subtilis, the “activity against B. subtilis (in words)” value is recorded as “exhibited activities” and the “Inhibition Zone(mm ± SD) Bacillus” value came out at 8.6 ± 0.9 mm. Further, in the assay with S. aureus, the “activity against S. aureus (in words)” value is on record as “exhibited activities” and the “Inhibition Zone(mm ± SD) S. aureus” value came to 10.6 ± 0.4 mm. In the assay on C. albicans, the “Inhibition Zone(mm ± SD) Candida” value is on record as “Nil”.

For `Clc1ccc(C=Nc2nccs2)cc1` [Compound 10, N-(4-chlorobenzylidene)thiazol-2-amine], in the assay with E. coli, the “Inhibition Zone(mm ± SD) E. coli” value worked out at 14.3 ± 0.4 mm. Moreover, the “Inhibition Zone(mm ± SD) P. aeruginosa” value in the assay with P. aeruginosa is recorded as “Nil”. For the same compound, the “Inhibition Zone(mm ± SD) Bacillus” value with B. subtilis is given as “Nil”. In addition, the “Inhibition Zone(mm ± SD) S. aureus” value with S. aureus is recorded as “Nil”. Besides, the “Inhibition Zone(mm ± SD) Candida” value in the assay with C. albicans is on record as “Nil”.

As for `ClN=Nc1nccs1` [Compound 2, 2-(Chlorodiazenyl)Thiazole], in the assay on E. coli, the “Inhibition Zone(mm ± SD) E. coli” value is reported as 10.15 ± 0.4 mm. In addition, in the assay with P. aeruginosa, the “Inhibition Zone(mm ± SD) P. aeruginosa” value is given as “Nil”. For the same compound, the “Inhibition Zone(mm ± SD) Bacillus” value with B. subtilis is reported as “Nil”. In addition, in the assay on S. aureus, the “Inhibition Zone(mm ± SD) S. aureus” value was “Nil”. In addition, the “Inhibition Zone(mm ± SD) Candida” value in the assay on C. albicans is recorded as “Nil”.

`CC1=NN=C(C)C1N=Nc1nccs1` [Compound 8, (3,5-Dimethyl-4H-pyrazol-4-yl)-thiazol-2-yl-diazene]: the “Inhibition Zone(mm ± SD) E. coli” value in the assay on E. coli worked out at 20.6 ± 0.9 mm. Besides, the “Inhibition Zone(mm ± SD) P. aeruginosa” value with P. aeruginosa is “Nil”. For the same compound, the “Inhibition Zone(mm ± SD) Bacillus” value with B. subtilis was found to be 10.6 ± 0.4 mm. Further, in the assay on S. aureus, the “Inhibition Zone(mm ± SD) S. aureus” value is “Nil”. Besides, the “Inhibition Zone(mm ± SD) Candida” value in the assay with C. albicans is reported as “Nil”.

With `COc1ccc(C=Nc2nccs2)cc1` [Compound 14, N-(4-methoxybenzylidene)thiazol-2-amine], the “Inhibition Zone(mm ± SD) E. coli” value in the assay on E. coli amounted to 12.3 ± 0.4 mm. The “Inhibition Zone(mm ± SD) P. aeruginosa” value in the assay on P. aeruginosa is “Nil”. In addition, the “Inhibition Zone(mm ± SD) Bacillus” value in the assay on B. subtilis is given as 10.3 ± 0.4 mm. Also, the “Inhibition Zone(mm ± SD) S. aureus” value in the assay with S. aureus is given as “Nil”. In the assay on C. albicans, the “Inhibition Zone(mm ± SD) Candida” value was “Nil”.

Turning to `CC1=NNC(=O)C1N=Nc1nccs1` (stereo not drawn) [Compound 6, 3-methyl-4-(thiazol-2-yldiazenyl)-1H-pyrazol-5(4H)-one], in the assay on E. coli, the “antibacterial activity against E. coli (in words)” value is “most potent antibacterial activity” and the “Inhibition Zone(mm ± SD) E. coli” value was 22 ± 0.8 mm. Moreover, in the assay on P. aeruginosa, the “growth inhibition against P. aeruginosa (in words)” value is recorded as “showed growth inhibition” and the “Inhibition Zone(mm ± SD) P. aeruginosa” value was 16 mm. For the same compound, the “Inhibition Zone(mm ± SD) Bacillus” value with B. subtilis was “Nil”. The “Inhibition Zone(mm ± SD) S. aureus” value with S. aureus is reported as “Nil”. The “Inhibition Zone(mm ± SD) Candida” value in the assay on C. albicans is reported as “Nil”.

`COc1ccc(C=Nc2nccs2)c(OC)c1` [Compound 16, N-(2,4-dimethoxy-benzylidene)-thiazol-2-yl-amine]: the “Inhibition Zone(mm ± SD) E. coli” value in the assay with E. coli is 13 ± 0.4 mm. The “Inhibition Zone(mm ± SD) P. aeruginosa” value in the assay on P. aeruginosa is “Nil”. For the same compound, in the assay on B. subtilis, the “activity against B. subtilis (in words)” value is reported as “exhibited activities” and the “Inhibition Zone(mm ± SD) Bacillus” value came to 12.3 ± 0.4 mm. In the assay with S. aureus, the “activity against S. aureus (in words)” value was “exhibited activities” and the “Inhibition Zone(mm ± SD) S. aureus” value worked out at 13 ± 0.1 mm. Further, the “Inhibition Zone(mm ± SD) Candida” value in the assay on C. albicans was “Nil”.

Take `NC1=NNC(=O)C1N=Nc1nccs1` (stereo not drawn) [Compound 7, 3-amino-4-(thiazol-2-yldiazenyl)-1H-pyrazol-5(4H)-one]: the “Inhibition Zone(mm ± SD) E. coli” value in the assay with E. coli came out at 16 ± 1.4 mm. Also, the “Inhibition Zone(mm ± SD) P. aeruginosa” value in the assay on P. aeruginosa was “Nil”. Also, in the assay on B. subtilis, the “activity against B. subtilis (in words)” value is on record as “showed activity” and the “Inhibition Zone(mm ± SD) Bacillus” value turned out to be 8.6 ± 0.4 mm. Moreover, in the assay on S. aureus, the “activity against S. aureus (in words)” value is reported as “showed activity” and the “Inhibition Zone(mm ± SD) S. aureus” value amounted to 12.3 ± 0.9 mm. Also, the “Inhibition Zone(mm ± SD) Candida” value in the assay with C. albicans is given as 12 ± 0 mm.

In the case of `Oc1ccc(C=Nc2nccs2)cc1` [Compound 12, 4-((thiazol-2-ylimino)methyl)phenol], the “Inhibition Zone(mm ± SD) E. coli” value with E. coli was 13.3 ± 1.2 mm. For the same compound, the “Inhibition Zone(mm ± SD) P. aeruginosa” value in the assay with P. aeruginosa is listed as “Nil”. The “Inhibition Zone(mm ± SD) Bacillus” value in the assay with B. subtilis was “Nil”. Also, in the assay with S. aureus, the “Inhibition Zone(mm ± SD) S. aureus” value is given as 10.3 ± 0.7 mm. Also, in the assay on C. albicans, the “Inhibition Zone(mm ± SD) Candida” value is recorded as “Nil”.

Regarding `C(=Nc1nccs1)c1ccccc1` [Compound 9, N-(benzylidene)thiazol-2-amine], in the assay on E. coli, the “antibacterial activity against E. coli (in words)” value is recorded as “least potent” and the “Inhibition Zone(mm ± SD) E. coli” value was 8.8 ± 0.4 mm. Moreover, in the assay on P. aeruginosa, the “growth inhibition against P. aeruginosa (in words)” value is reported as “showed growth inhibition” and the “Inhibition Zone(mm ± SD) P. aeruginosa” value is recorded as 8 ± 0 mm. In addition, the “Inhibition Zone(mm ± SD) Bacillus” value with B. subtilis is “Nil”. The “Inhibition Zone(mm ± SD) S. aureus” value with S. aureus is recorded as “Nil”. In addition, the “Inhibition Zone(mm ± SD) Candida” value in the assay on C. albicans is recorded as “Nil”.

Take `COc1cccc(C=Nc2nccs2)c1OC` [Compound 17, N-(2,3-dimethoxybenzylidene)thiazol-2-amine]: in the assay with E. coli, the “Inhibition Zone(mm ± SD) E. coli” value was 10.95 ± 0.3 mm. For the same compound, the “Inhibition Zone(mm ± SD) P. aeruginosa” value in the assay on P. aeruginosa was “Nil”. Also, in the assay with B. subtilis, the “Inhibition Zone(mm ± SD) Bacillus” value is recorded as “Nil”. Besides, in the assay on S. aureus, the “Inhibition Zone(mm ± SD) S. aureus” value stood at 9.3 ± 0.4 mm. The “Inhibition Zone(mm ± SD) Candida” value in the assay with C. albicans is “Nil”.

Turning to `Cc1[nH]c2ccccc2c1C=Nc1nccs1` [Compound 18, N-((2-methyl-1H-indol-3-yl)methylene)thiazol-2-amine], in the assay with E. coli, the “Inhibition Zone(mm ± SD) E. coli” value stood at 16.2 ± 0.9 mm. In addition, in the assay with P. aeruginosa, the “growth inhibition against P. aeruginosa (in words)” value is listed as “showed growth inhibition” and the “Inhibition Zone(mm ± SD) P. aeruginosa” value was found to be 14.6 ± 0.7 mm. Moreover, the “Inhibition Zone(mm ± SD) Bacillus” value with B. subtilis is listed as 10 ± 0.2 mm. The “Inhibition Zone(mm ± SD) S. aureus” value in the assay on S. aureus came to 11.3 ± 0.4 mm. Also, the “Inhibition Zone(mm ± SD) Candida” value in the assay on C. albicans was “Nil”.

For the compound `Oc1ccccc1C=Nc1nccs1` [Compound 13, 2-((thiazol-2-ylimino)methyl)phenol], the “Inhibition Zone(mm ± SD) E. coli” value with E. coli is 14.95 ± 0.5 mm. Moreover, in the assay with P. aeruginosa, the “growth inhibition against P. aeruginosa (in words)” value is recorded as “showed growth inhibition” and the “Inhibition Zone(mm ± SD) P. aeruginosa” value is reported as 9 ± 0.8 mm. In the assay on B. subtilis, the “activity against B. subtilis (in words)” value was “exhibited activities” and the “Inhibition Zone(mm ± SD) Bacillus” value was determined as 11.3 ± 0.4 mm. Besides, in the assay on S. aureus, the “activity against S. aureus (in words)” value is recorded as “exhibited activities” and the “Inhibition Zone(mm ± SD) S. aureus” value came to 9.6 ± 0.3 mm. In addition, the “Inhibition Zone(mm ± SD) Candida” value with C. albicans is reported as “Nil”.

As to `Nc1nccs1` [Compound 1, 2-aminothiazole], in the assay on E. coli, the “Inhibition Zone(mm ± SD) E. coli” value is 9.8 ± 0.2 mm. Also, the “Inhibition Zone(mm ± SD) P. aeruginosa” value in the assay with P. aeruginosa is “Nil”. The “Inhibition Zone(mm ± SD) Bacillus” value in the assay with B. subtilis is “Nil”. The “Inhibition Zone(mm ± SD) S. aureus” value in the assay on S. aureus is on record as “Nil”. Besides, the “Inhibition Zone(mm ± SD) Candida” value in the assay on C. albicans is recorded as “Nil”.
